Consider 19 compounds from patent publication US20240051936A1, “ISOINDOLINONE COMPOUNDS” (Monte Rosa Therapeutics, Inc., priority 2021, published 2024).

Assay [1] deals with Full length wild-type cereblon CRBN (Homo sapiens (Human), UniProt Q96SW2). In words: Fluorescence polarization (FP) assay, cereblon binding. Here is the method: Compound activity was monitored in a fluorescence polarization (FP) homogeneous assay using 1-[5-({2-[2-(2-{[2-(2,6-dioxopiperidin-3-yl)-1,3-dioxo-2,3-dihydro-1H-isoindol-4-yl]oxy}acetamido)ethoxy]ethyl}carbamoyl)pentyl]-3,3-dimethyl-2-[(1E,3E)-5-[(2E)-1,3,3-trimethyl-5-sulfo-2,3-dihydro-1H-indol-2-ylidene]penta-1,3-dien-1-yl]-3H-indol-1-ium-5-sulfonate as a fluorescent probe. Unless otherwise stated, all reagents were purchased from Sigma Aldrich. Enzymatic reactions were conducted in Perkin-Elmer Black 384 well ProxiPlate Plus (catalogue no. 6008269) in 10 sL total volume. Full length wild-type cereblon CRBN (80.0 nM, 10 sL) was incubated in assay buffer containing 20 mM HEPES (pH 8.0), […], 0.5 mM TCEP and 0.05% Tween 20 in the presence or absence of compound (300 nL). Inhibitors were stored as 10 mM DMSO stocks in an inert environment (low humidity, dark, low oxygen, room temperature) using the Storage Pod System.
Chain of Full length wild-type cereblon CRBN (Q96SW2 whole entry): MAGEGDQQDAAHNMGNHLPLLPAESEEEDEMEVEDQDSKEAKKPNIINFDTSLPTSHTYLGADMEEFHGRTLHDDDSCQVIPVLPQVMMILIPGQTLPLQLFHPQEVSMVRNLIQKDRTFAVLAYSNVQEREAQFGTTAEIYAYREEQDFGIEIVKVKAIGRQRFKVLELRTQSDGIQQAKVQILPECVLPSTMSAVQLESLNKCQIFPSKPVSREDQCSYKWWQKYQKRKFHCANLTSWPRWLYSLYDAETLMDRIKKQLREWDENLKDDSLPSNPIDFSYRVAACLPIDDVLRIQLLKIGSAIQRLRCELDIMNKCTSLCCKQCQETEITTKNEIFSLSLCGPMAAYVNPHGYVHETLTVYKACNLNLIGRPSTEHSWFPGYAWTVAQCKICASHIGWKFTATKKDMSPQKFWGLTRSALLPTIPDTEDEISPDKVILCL
Compounds and DMSO were dispensed using the Echo E5XX (Labcyte Inc. USA) to give concentrations from 300 to 0.937 or 3000 to 9.3 nM in a 12 data point curve. […] Following incubation at room temperature for 30 min, the assay was initiated by dispensing the probe to a final concentration of 5 nM (2.5 nL of a 20 μM stock) using the Echo E5XX. FP was measured after a period of 12 hours using a Pherastar plate reader (BMG Labtech, Germany) exciting at 590 nm and measuring the amount of parallel and perpendicular light at 675 nm. The FP signal was subsequently normalized to the no-compound control (i.e., DMSO). Analysis and IC50 values were derived using Dotmatics (Dotmatics UK) software.
Background: Fluorescence polarisation rises when a labelled molecule tumbles more slowly, as on binding a larger partner.

For assay [2], the target named is GSPT1 (Homo sapiens (Human), UniProt P15170+Q96SW2). In words: Immunofluorescence assay for GSPT1 degradation in CAL-Si cells. The format is cell-based. The conditions noted are these: CAL-Si cells. Here is the method:
The compounds were tested in an immunofluorescence assay for their activity to bind to degrade GSPT1. CAL-Si cells were purchased from DSMZ (cat. Number ACC302), sub-cultured in 90% Dulbecco's MEM (4.5 g/L glucose, Gibco 11965)+10% heat inactivated FBS (BioConcept, 2-01F136I) and incubated at 37° C., 5% CO2. For the assay, imaging microtiterplate Cell Carrier 96 Ultra (Perkin Elmer 6055302) were pre-coated with Fibronectin (Sigma F085, 30 μl at 0.2 μg/ml) in PBS (100 μl, Gibco 14190) for 45 min at room temperature, rinsed with PBS and CAL-Si cells (30K cells/well) were plated and let to adhere overnight. Cells were treated with compounds typically using a serial dilution ranging from 30 μM to 0.1 nM for 6 hours. Compounds were stored at 10 mM DMSO stocks. Vehicle (DMSO), positive (CC-885, 10 μM) and rescue controls (positive control plus 0.2 μM bortezomib) were also included at this stage. Cells were subsequently rinsed with PBS and fixed in 10% Formalin solution (50 μl, Sigma HT5011)) for 20 mins at room temperature. Following three consecutive PBS washes (100 μl), cells were permeabilized in 0.1% Triton X-100 in PBS (Sigma 93443, 50 μl) for 15 mins at room temperature. Following three further PBS washes, 50 μl blocking buffer (1% BSA, Sigma A4503, in PBS) was added for 45 min for signal-to-noise reduction.
Primary antibody (human GSPT1, Sigma HPA052488) was diluted in blocking buffer (dil.1/300, 35 μl/well) and incubated with the cells overnight at 4° C. After three PBS washes, Alexa-fluor 488 coupled secondary antibodies (Invitrogen, A32731, dil.1/1000), Alexa-fluor 647-Phalloïdin (Invitrogen, A22287, dil.1/200) and DAPI (Thermo, #62248, dil.1/1000) were diluted in blocking buffer and incubated with the samples for 2 hours at room temperature. After three final PBS washes, samples were conserved in 100 μl PBS in the dark, until measurement. Image acquisition was performed on the Operetta High-Content Imager (Perkin-Elmer). Fluorescence intensity of Alexa-Fluor 488 (GSPT1), Alexa-Fluor 647 (Actin) and DAPI (Nucleus) were measured. For the determination of GSPT1 DC50 values, a custom algorithm implemented in the PerkinElmer image analysis software Harmony-Acapella® was developed. After user-defined setting of adjustment parameters, the analysis was run identically without human intervention for all image fields. DAPI staining of the nuclei was used to determine the location of cells using standard nuclei detection modules. Segmentation artifacts were removed by threshold-based filters for area, roundness and intensity. The outline of the cells was determined analogously from the sum of the normalized, smoothed DAPI and Actin channel, starting from each nucleus. The Alexa-Fluor 488 (GSPT1) signal intensity in each cell was finally measured, in order to obtain a Mean intensity per cell. GSPT1 degradation (DC50) was calculated after normalization to controls and data import in CDD vault Database, using non-linear regression.

[3] abbreviates: cereblon binding, bound, read-out: IC50 value.
Setting [4] is: wild-type CRBN 80.0 nM, probe 5 nM, FP measured after 12 hours, read-out: rFP IC50.
The mark [5] stands for this setting: compounds with code A, read-out: DC50 value code.
[6] abbreviates: treated 6 hours, read-out: Code, activity for GSPT1 degradation (DC50).

Where two headings read alike, the source gives them in different places.

Chain of GSPT1 (P15170 whole entry): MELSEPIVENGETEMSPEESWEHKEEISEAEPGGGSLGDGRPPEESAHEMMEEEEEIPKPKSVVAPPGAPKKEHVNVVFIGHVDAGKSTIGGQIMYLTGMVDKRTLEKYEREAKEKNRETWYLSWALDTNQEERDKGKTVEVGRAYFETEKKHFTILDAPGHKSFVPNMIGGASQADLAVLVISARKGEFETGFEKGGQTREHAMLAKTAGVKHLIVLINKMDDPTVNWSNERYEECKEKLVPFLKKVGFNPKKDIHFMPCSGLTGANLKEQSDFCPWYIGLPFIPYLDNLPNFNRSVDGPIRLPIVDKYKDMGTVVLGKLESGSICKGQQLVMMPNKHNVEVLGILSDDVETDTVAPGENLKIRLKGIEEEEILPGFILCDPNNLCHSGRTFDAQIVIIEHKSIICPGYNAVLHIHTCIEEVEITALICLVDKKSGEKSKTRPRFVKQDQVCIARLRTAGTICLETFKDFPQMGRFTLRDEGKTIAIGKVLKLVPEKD
Chain of GSPT1 (Q96SW2 whole entry): as the sequence (Q96SW2 whole entry) above
Chain of GSPT1 (Q16531 whole entry partner): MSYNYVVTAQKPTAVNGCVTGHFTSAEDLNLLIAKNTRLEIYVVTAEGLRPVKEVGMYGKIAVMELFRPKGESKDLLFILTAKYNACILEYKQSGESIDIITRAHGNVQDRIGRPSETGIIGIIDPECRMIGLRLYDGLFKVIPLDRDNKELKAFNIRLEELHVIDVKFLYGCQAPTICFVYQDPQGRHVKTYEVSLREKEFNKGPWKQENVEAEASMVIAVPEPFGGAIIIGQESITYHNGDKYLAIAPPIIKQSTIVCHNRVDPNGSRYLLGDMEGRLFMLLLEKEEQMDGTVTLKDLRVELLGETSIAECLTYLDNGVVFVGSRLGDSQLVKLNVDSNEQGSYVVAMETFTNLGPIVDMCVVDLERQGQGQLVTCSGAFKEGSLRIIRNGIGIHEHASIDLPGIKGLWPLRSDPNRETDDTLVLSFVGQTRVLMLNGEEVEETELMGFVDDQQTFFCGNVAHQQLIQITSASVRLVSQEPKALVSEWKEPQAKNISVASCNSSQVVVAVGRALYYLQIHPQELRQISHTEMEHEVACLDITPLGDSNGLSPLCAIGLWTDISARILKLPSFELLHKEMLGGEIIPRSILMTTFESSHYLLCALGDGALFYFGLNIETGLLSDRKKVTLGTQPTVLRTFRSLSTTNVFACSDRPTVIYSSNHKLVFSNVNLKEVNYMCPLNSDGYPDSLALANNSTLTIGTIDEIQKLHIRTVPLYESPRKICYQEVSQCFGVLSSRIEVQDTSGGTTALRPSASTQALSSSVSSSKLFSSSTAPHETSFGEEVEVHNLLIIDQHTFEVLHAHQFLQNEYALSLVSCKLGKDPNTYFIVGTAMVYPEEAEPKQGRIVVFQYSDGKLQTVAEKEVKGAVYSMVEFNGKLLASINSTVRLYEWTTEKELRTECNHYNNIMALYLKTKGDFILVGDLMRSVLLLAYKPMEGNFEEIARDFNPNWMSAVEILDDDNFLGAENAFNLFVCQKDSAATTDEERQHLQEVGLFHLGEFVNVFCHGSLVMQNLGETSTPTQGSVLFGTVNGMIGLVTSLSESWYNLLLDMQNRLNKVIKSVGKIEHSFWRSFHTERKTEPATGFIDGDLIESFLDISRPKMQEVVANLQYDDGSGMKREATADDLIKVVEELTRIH

Consider `COc1cc(COC(=O)Nc2cccc(C(C)(C)C)c2)cc2c1CN(C1CCC(=O)NC1=O)C2=O` (stereo not drawn) [Compound 54, (2-(2,6-dioxopiperidin-3-yl)-7-methoxy-3-oxoisoindolin-5-yl)methyl (3-(tert-butyl)phenyl)carbamate], for which the values for the IC50 in assay [1] (setting [3]) and in assay [1] (setting [4]) were under 600 nM and at most 600 nM, respectively. In addition, the DC50 in assay [2] (setting [5]) and in assay [2] (setting [6]) was under 30 nM each time.
With `Cc1cc(C)cc(NC(=O)OCc2cc(F)c3c(c2)C(=O)N(C2CCC(=O)NC2=O)C3)c1` (stereo not drawn) [Compound 31, (2-(2,6-dioxopiperidin-3-yl)-7-fluoro-3-oxoisoindolin-5-yl)methyl (3,5-dimethylphenyl)carbamate], the half-inhibitory concentration (IC50) – broadly, the concentration at which inhibition is half-maximal – in assay [1] (setting [4]) was over 1900 nM. Also, in assay [2] (setting [6]), the DC50 (commonly the midpoint of the concentration-degradation curve) fell in the range of 30 to 300 nM.
Turning to `COc1cc(COC(=O)Nc2ccc(C(C)(C)C)cc2)cc2c1CN(C1CCC(=O)NC1=O)C2=O` (stereo not drawn) [Compound 43, (2-(2,6-dioxopiperidin-3-yl)-7-methoxy-3-oxoisoindolin-5-yl)methyl (4-(tert-butyl)phenyl)carbamate], the IC50 in assay [1] (setting [3]) was under 600 nM; in assay [1] (setting [4]), 600 to 1200 nM. The DC50 in assay [2] (setting [5]) and in assay [2] (setting [6]) was under 30 nM in each case.
Regarding `O=C1CCC(N2Cc3c(F)cc(COC(=O)Nc4cc(F)cc(OC(F)F)c4)cc3C2=O)C(=O)N1` (stereo not drawn) [Compound 6, (2-(2,6-dioxopiperidin-3-yl)-7-fluoro-3-oxoisoindolin-5-yl)methyl(3-(difluoromethoxy)-5-fluorophenyl)carbamate], the IC50 in assay [1] (setting [4]) is over 1900 nM. Further, the DC50 in assay [2] (setting [6]) lay in the range of 30 to 300 nM.
For `COc1cc(COC(=O)Nc2cccc(OC3CC3)c2)cc2c1CN(C1CCC(=O)NC1=O)C2=O` (stereo not drawn) [Compound 58, (2-(2,6-dioxopiperidin-3-yl)-7-methoxy-3-oxoisoindolin-5-yl)methyl (3-cyclopropoxyphenyl)carbamate], the half-maximal inhibitory concentration (IC50) in assay [1] (setting [3]) is under 600 nM; in assay [1] (setting [4]) it was at most 600 nM. The DC50 in assay [2] (setting [6]) is over 300 nM.
As for `COc1cc(COC(=O)Nc2ccc(F)c(OC(F)(F)F)c2)cc2c1CN(C1CCC(=O)NC1=O)C2=O` (stereo not drawn) [Compound 39, (2-(2,6-dioxopiperidin-3-yl)-7-methoxy-3-oxoisoindolin-5-yl)methyl(4-fluoro-3-(trifluoromethoxy)phenyl) carbamate], in assay [1] (setting [3]), the IC50 was under 600 nM.
Take `COc1cc(COC(=O)Nc2ccc(N3CCCC3C)nc2)cc2c1CN(C1CCC(=O)NC1=O)C2=O` (stereo in doubt) [Compound 62, (2-(2,6-dioxopiperidin-3-yl)-7-methoxy-3-oxoisoindolin-5-yl)methyl (6-((R)-2-methylpyrrolidin-1-yl)pyridin-3-yl)carbamate]: the IC50 is under 600 nM in assay [1] (setting [3]) and at most 600 nM in assay [1] (setting [4]).
In the case of `COc1cc(COC(=O)Nc2cc(F)cc(OC(F)F)c2)cc2c1CN(C1CCC(=O)NC1=O)C2=O` (stereo not drawn) [Compound 47, (2-(2,6-dioxopiperidin-3-yl)-7-methoxy-3-oxoisoindolin-5-yl)methyl(3-(difluoromethoxy)-5-fluorophenyl) carbamate], the IC50 in assay [1] (setting [3]) is under 600 nM.
In the case of `COc1cc(COC(=O)Nc2ccc(C3CCC3)cc2)cc2c1CN(C1CCC(=O)NC1=O)C2=O` (stereo not drawn) [Compound 57, (2-(2,6-dioxopiperidin-3-yl)-7-methoxy-3-oxoisoindolin-5-yl)methyl(4-cyclobutylphenyl) carbamate], the IC50 in assay [1] (setting [3]) was under 1200 nM.
As for `Cc1cc(F)c(NC(=O)OCc2cc(F)c3c(c2)C(=O)N(C2CCC(=O)NC2=O)C3)cc1Cl` (stereo not drawn) [Compound 64, (2-(2,6-dioxopiperidin-3-yl)-7-fluoro-3-oxoisoindolin-5-yl)methyl(5-chloro-2-fluoro-4-methylphenyl)carbamate], the DC50 in assay [2] (setting [6]) is 30 to 300 nM.
In the case of `C[C@@H]1CCCN1c1ccc(NC(=O)OCc2cc(F)c3c(c2)C(=O)N(C2CCC(=O)NC2=O)C3)cn1` (stereo partly drawn) [Compound 23, (2-(2,6-dioxopiperidin-3-yl)-7-fluoro-3-oxoisoindolin-5-yl)methyl (6-((R)-2-methylpyrrolidin-1-yl)pyridin-3-yl)carbamate], the IC50 in assay [1] (setting [3]) was under 600 nM.
Regarding `COc1cc(COC(=O)Nc2cc(Cl)c(C)cc2F)cc2c1CN(C1CCC(=O)NC1=O)C2=O` (stereo not drawn) [Compound 68, (2-(2,6-dioxopiperidin-3-yl)-7-methoxy-3-oxoisoindolin-5-yl)methyl (5-chloro-2-fluoro-4-methylphenyl)carbamate], the DC50 in assay [2] (setting [6]) was over 300 nM.
With `Cc1ccc(NC(=O)OCc2ccc3c(c2C)C(=O)N(C2CCC(=O)NC2=O)C3)cc1Cl` (stereo not drawn) [Compound 73, (2-(2,6-dioxopiperidin-3-yl)-4-methyl-3-oxoisoindolin-5-yl)methyl(3-chloro-4-methylphenyl)carbamate], the half-maximal inhibitory concentration (IC50) in assay [1] (setting [4]) is at most 600 nM.
Regarding `Cc1cc(F)cc(NC(=O)OCc2cc(F)c3c(c2)C(=O)N(C2CCC(=O)NC2=O)C3)c1` (stereo not drawn) [Compound 63, (2-(2,6-dioxopiperidin-3-yl)-7-fluoro-3-oxoisoindolin-5-yl)methyl (3-fluoro-5-methylphenyl)carbamate], the DC50 in assay [2] (setting [6]) lay in the range of 30 to 300 nM.
Consider `O=C1CCC(N2Cc3c(F)cc(COC(=O)Nc4cc(OC(F)(F)F)ccc4F)cc3C2=O)C(=O)N1` (stereo not drawn) [Compound 65, (2-(2,6-dioxopiperidin-3-yl)-7-fluoro-3-oxoisoindolin-5-yl)methyl (2-fluoro-5-(trifluoromethoxy)phenyl) carbamate], for which the 50% degradation concentration (DC50) in assay [2] (setting [6]) was in the range of 30 to 300 nM.
In the case of `CC(C)(C)c1ccc(NC(=O)OCc2cc(F)c3c(c2)C(=O)N(C2CCC(=O)NC2=O)C3)cn1` (stereo not drawn) [Compound 9, (2-(2,6-dioxopiperidin-3-yl)-7-fluoro-3-oxoisoindolin-5-yl)methyl(6-(tert-butyl)pyridin-3-yl)carbamate], the 50% inhibitory concentration (IC50) in assay [1] (setting [3]) is under 600 nM.
On the same count and under the same terms, the result for `CC1(C)COc2cc(NC(=O)OCc3cc(F)c4c(c3)C(=O)N(C3CCC(=O)NC3=O)C4)ccc21` (stereo not drawn) [Compound 17, (2-(2,6-dioxopiperidin-3-yl)-7-fluoro-3-oxoisoindolin-5-yl)methyl(3,3-dimethyl-2,3-dihydrobenzofuran-6-yl) carbamate] reads under 1200 nM.
Turning to `Cc1cc(Cl)cc(NC(=O)OCc2cc(F)c3c(c2)C(=O)N(C2CCC(=O)NC2=O)C3)c1` (stereo not drawn) [Compound 27, (2-(2,6-dioxopiperidin-3-yl)-7-fluoro-3-oxoisoindolin-5-yl)methyl(3-chloro-5-methylphenyl)carbamate], the half-inhibitory concentration (IC50) in assay [1] (setting [3]) is under 600 nM.
With `Cc1cc(NC(=O)OCc2cc(F)c3c(c2)C(=O)N(C2CCC(=O)NC2=O)C3)cnc1-c1ccccc1` (stereo not drawn) [Compound 20, (2-(2,6-dioxopiperidin-3-yl)-7-fluoro-3-oxoisoindolin-5-yl)methyl(5-methyl-6-phenylpyridin-3-yl)carbamate], in assay [1] (setting [3]), the half-inhibitory concentration (IC50) is under 600 nM.
